Literature values, collected in patent US7994218B2, “Simple pantoic acid ester neopentyl sulfonyl ester cyclization release prodrugs of acamprosate, compositions thereof, and methods of use” (XenoPort, Inc., priority 2007, dated 2011).

Experiments:
[1] = acamprosate doses about 1-2 gm per day
cocaine conditioned mice = conditions: 100 mg/kg acamprosate for 3 days

Compound: CC(=O)NCCCS(=O)(=O)O [acamprosate, 3-(Acetylamino)propylsulfonic acid]
- time at which steady-state plasma concentration occurs post-dose [1]: 3 to 8 h
- effect on relapse-like behavior (cocaine conditioned mice): attenuated relapse-like behavior
